How the values were obtained:
[1] = test system: circulating apoptotic ECs; assay: Flow cytometry (FACS) of circulating apoptotic ECs in peripheral blood of patients with stable angina treated prospectively; assay type: in vivo, human
Experimental: (§1) In addition, 8 patients with stable angina were prospectively treated with atorvastatin (20 mg/day, four weeks).
The lysis of erythrocytes in 10 ml peripheral venous heparin blood was performed with the aid of a commercially available solution for lysis (Becton Dickinson, BD). The circulating ECs were then examined by means of 4-channel-FACS (Fluorescence Activated Cell Sorting)-analysis, using a suitably modified protocol according to the method of Mancuso et al. and Monestiroli et al. (Mancuso P., Burlini A., Pruneri G., Goldhirsch A., Martinelli G., Bertolini F. Blood. 2001; 97: 3658-3661; Monestiroli S., Mancuso P., Burlini A., Pruneri G., Dell'Agnola C., Gobbi A., Martinelli G., Bertolini F. Cancer Res. 2001; 61: 4341-4344) (FIG. 1). First, in the representation of the forward/sideward-scatter a regional window was defined, in order to exclude platelets and debris from the further analyses. Amongst the remaining cells, the number of the CD45^+-signals that were identified with a direct perCP-conjugated monoclonal antibody against human CD45 (BD) was quantified, in order to normalise each measured cellular population in view of the total number of the leukocytes in relation to the number of WBCs. In order to specifically detect mature ECs, only CD45^−-cells were analysed further by double staining with antibodies against the EC-specific epitope CD146 (MeI-CAM, MUC18, S-Endo-1; Shih I. M. J Pathol. 1999; 189: 4-11) (monoclonal mouse-antibody, directly FITC-conjugated; Chemicon) and against von Willebrandt-factor (vWF) (rabbit, Oncogene), followed by a PE-conjugated anti-rabbit secondary antibody. Alternatively, human KDR was detected with an anti-KDR-antibody of the mouse (Sigma), followed by a PE-conjugated anti-mouse secondary antibody in addition to vWF. CD45^−/CD146^+/vWF^+ or CD45^−/KDR^+/vWF^+-cells were defined as mature ECs. […]

LDL-cholesterol = assay: Serum lipid fractions (LDL-cholesterol) in patients with stable angina before and after treatment; assay type: in vivo, human
Experimental: as §1
In all patients serum was also collected at the time of examination for a determination of the concentrations of CRP and hsCRP (turbidimetric assay, Boehringer Mannheim and Ultrasensitive N Latex CRP Monotest, Behring, respectively) as well as serum lipid-fractions (Boehringer Mannheim).
Thus, it was prospectively examined whether a short-term treatment with atorvastatin (20 mg/day, four weeks) reduces the EC-apoptosis in patients with stable CAD.

CC(C)c1c(C(=O)Nc2ccccc2)c(-c2ccccc2)c(-c2ccc(F)cc2)n1CC[C@@H](O)C[C@@H](O)CC(=O)O [atorvastatin]
EC-apoptosis ([1]; patients with CAD, four week treatment period): profoundly reduces | number of circulating apoptotic ECs ([1]; patients with stable CAD (SA), n=8, 20 mg/day, four weeks, FIG. 3A): significantly reduced | proportion of apoptotic ECs of the total number of circulating ECs ([1]; patients with stable CAD (SA), n=8, 20 mg/day, four weeks, FIG. 3B): significantly reduced | LDL-cholesterol (mg/dl) post (LDL-cholesterol; n=8 patients with stable angina, after 20 mg/day for four weeks, pre value 155 ± 16, mean ± SEM): 86 ± 13 mg/dL | concentration of LDL-cholesterol (LDL-cholesterol; patients with stable CAD, 20 mg/day, four weeks, p<0.02): significantly reduced

— US20050244897A1, “Endothelial cells as diagnostic instrument in cardiovascular diseases” (priority 2002, published 2005)
